In data set [1] the target is T1, Ba/F3 cells transformed with human Tel-TrkA (ETV6-NTRK1) (Homo sapiens, UniProt P04629).
T1 construct: expressed in transfected cells; host or cells: Ba/F3 murine hematopoietic progenitor cell line; the other entry of the earlier key: ETV6 (P41212, Transcription factor ETV6)
The data set is described as follows: Inhibition of cellular TrkA dependent proliferation (Ba/F3 Tel-TrkA). It counts as cell-based. The note with it: urea versus amide linkage. Here is the method: (§1) Inhibition of Cellular TrkA, trkB or TrkC Dependent Proliferation
(§2) The cell line used is the Ba/F3 murine hematopoietic progenitor cell line transformed with human Tel-TrkA, Tel-TrkB or Tel-TrkC cDNAs (Ba/F3 EN A/B/C). These cells are maintained in RPMI/10% fetal bovine serum (RPMI/F B S) supplemented with penicillin 50 μg/mL, streptomycin 50 μg/mL and L-glutamine 200 mM. Untransformed Ba/F3 cells are similarly maintained with the addition 5 ng/ml of murine recombinant IL3.
(§3) 50 μl of a Ba/F3 or Ba/F3 EN A/B/C cell suspension are plated in Greiner 384 well microplates (white) at a density of 2000 cells per well. 50 nl of serially diluted test compound (1 0-0.0001 mM in DMSO solution) is added to each well. […] The emited luminiscence is quantified using the Acquest™ system (Molecular Devices).
(§4) Compounds of the invention are tested for their antiproliferative effect on Ba/F3 cells expressing either Tel-TrkA, Tel-TrkB or Tel-TrkC and an additional panel of 34 selected diverse kinases activated by fusion to the dimerizing partners Bcr or Tel (Abl, AlK, BMX, EphA3, EphB2, FGFR2, FGFR3, FGFR4, FGR, FLT1, FLT3, FLT4, FMS, IGF1R, InsR, JAK1, JAK2, JAK3, KDR, Kit, Lck, Lyn, MER, MET, PDGFRb, RET, RON, Ros-1, Src, Syk, TIE2, TYK2, Tie1, ZAP70). […] The IC50 values of the compounds in the different cell lines were determined from the dose response curves obtained as describe above.

Data set [2] concerns the target T2, Ba/F3 cells transformed with human Tel-TrkB (ETV6-NTRK2) (Homo sapiens, UniProt Q16620).
T2 construct: expressed in transfected cells; host or cells: Ba/F3 murine hematopoietic progenitor cell line; the other entry of the earlier key: ETV6 (P41212, Transcription factor ETV6)
As to the kind of experiment: Inhibition of cellular TrkB dependent proliferation (Ba/F3 Tel-TrkB). It counts as cell-based. The note with it: urea versus amide linkage. The protocol: as §1, §2, §3, §4

The test system of data set [3] is Ba/F3 cells transformed with human Tel-TrkC (ETV6-NTRK3). The data set is described as follows: Inhibition of cellular TrkC dependent proliferation (Ba/F3 Tel-TrkC). It counts as cell-based. The note with it: urea versus amide linkage. The protocol:
as §1, §2, §3, §4

The nature of data set [4]: Measuring bioavailability: plasma concentration in mice. It counts as in vivo, male Balb/c mice. The note with it: ratio compound 17 / compound A. The protocol: Five- to six-week old male Balb/c mice are housed at room temperature (18 to 22° C.) and humidity in the range 40-70%. The animal weights at the time of compound administration range from 20 to 25 grams. The mice are fed a normal diet and have free access to water at all times, before and during experiments. Fasted animals are studied on an infrequent basis. To maximize drug absorption via oral gavage and/or study food effects, animals are fasted the night before dosing and 4 hours thereafter. Animal experiments are performed according to the Animal Welfare Act and the Guide for the Care and Use of Laboratory Animals approved by the Institutional Animal Care and Use Committee (IACUC).
Test compounds are dissolved in a vehicle for dosing at a final concentration of 0.5 to 10 mg/mL. Test compounds are dosed intravenously via the lateral tail vein and orally using a gavage needle. Dosing procedures, dosing volumes, and the selection of dosing vehicles or formulations adhered to the Guidelines issued by the Novartis Pharmacology Council entitled “Preparation and Administration of Experimental Formulation in Pre-ESC Phase”. Briefly, i.v. doses are administered in solutions that are neutral and isotonic aqueous based and oral doses are administered in either solution (with or without co-solvent) or suspension.
Blood samples are drawn via retro orbital sinus. For ease of handling, animals are sometimes anesthetized under isoflurane vapor. Approximately five 50 μl samples of blood are removed each sampling time.
Pharmacokinetic parameters are calculated by non-compartmental regression analysis using Winnonlin 4.0 software (Pharsight, Mountain View, Calif., USA). The typical intravenous and oral dosing study in mice would results in the reporting of the following pharmacokinetic parameters: i.v. dosing: Vss, CL, AUC, Cmax, Tmax, Clast, Tlast and T1/2; and p.o. dosing: F, AUC, Cmax, Tmax, Clast, Tlast and T1/2.

Usually melting point stands for the temperature, or range, at which the solid turns liquid.

T1 sequence (P04629 510-796 limits assumed): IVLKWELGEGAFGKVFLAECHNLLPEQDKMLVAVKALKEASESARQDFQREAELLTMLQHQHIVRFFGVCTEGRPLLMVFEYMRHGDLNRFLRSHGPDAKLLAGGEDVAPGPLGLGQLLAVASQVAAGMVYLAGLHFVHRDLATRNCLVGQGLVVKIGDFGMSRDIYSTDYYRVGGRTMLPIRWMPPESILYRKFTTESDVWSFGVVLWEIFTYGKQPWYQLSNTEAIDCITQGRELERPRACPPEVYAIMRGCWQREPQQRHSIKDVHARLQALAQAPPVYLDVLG
T2 sequence (Q16620 538-822 limits assumed): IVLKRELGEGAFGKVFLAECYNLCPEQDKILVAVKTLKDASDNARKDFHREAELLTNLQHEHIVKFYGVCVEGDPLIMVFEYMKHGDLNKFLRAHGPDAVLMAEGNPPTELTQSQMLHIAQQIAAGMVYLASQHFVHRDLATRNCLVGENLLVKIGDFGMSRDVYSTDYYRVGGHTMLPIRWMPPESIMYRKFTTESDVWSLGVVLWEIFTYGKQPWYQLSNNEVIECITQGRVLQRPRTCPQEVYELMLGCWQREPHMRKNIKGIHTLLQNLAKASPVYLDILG

`O=C(Nc1cccc(Nc2ccc3c(c2)NC(=O)/C3=C\c2ccc[nH]2)c1)Nc1ccc(F)cc1F` [Compound 17, 1-(2,4-Difluoro-phenyl)-3-{3-[2-oxo-3-(1H-pyrrol-2-ylmethylene)-2,3-dihydro-1H-indol-6-ylamino]-phenyl}-urea]: in data set [1], the “potency for TrkA relative to the equivalent amide-linked compound (compound A)” value is given as “at least 132 fold”. Also, the “potency for TrkB relative to the equivalent amide-linked compound (compound A)” value in data set [2] is “at least 132 fold”. Further, in data set [3], the “potency for TrkC relative to the equivalent amide-linked compound (compound A)” value is “at least 132 fold”. Besides, the “plasma concentration relative to compound A” value in data set [4] (at 30 minutes) is 2.2 times; in data set [4] (at 1 hour), 4.1 times; in data set [4] (at 3 hours), 4.7 times; in data set [4] (at 5 hours), 2.3 times.
Take `O=C(Nc1cccc(Nc2ccc3c(c2)NC(=O)/C3=C\c2ccc[nH]2)c1)Nc1cccc(C(F)(F)F)c1` [Example 1, 1-{3-[2-oxo-3-(1H-pyrrol-2-ylmethylene)-2,3-dihydro-1H-indol-6-ylamino]phenyl}-3-(3-trifluoromethylphenyl)urea]: the melting point is 253 to 256 °C.
The same measure, in the same setting: with `O=C(Nc1cccc(Nc2ccc3c(c2)NC(=O)/C3=C\c2ccc[nH]2)c1)Nc1cc(F)c(F)cc1F` [Example 3, 1-{3-[2-oxo-3-(1H-pyrrol-2-ylmethylene)-2,3-dihydro-1H-indol-6-ylamino]phenyl}-3-(2,4,5-trifluorophenyl)urea] the figure was 224 to 226 °C.

The record behind these values is US20100168182A1, “COMPOUNDS AND COMPOSITIONS AS KINASE INHIBITORS” (IRM LLC, priority 2006, published 2010).
